Drawing on patent US7910591B2, “Piperazine derivatives of alkyl oxindoles” (EGIS Gyogyszergyar NYRT., priority 2004, dated 2011), this text covers melting point and IC50 for 12 molecules.

The target of one series is T1, 5-HT7 receptor (Homo sapiens, UniProt P34969).
T1 construct: expressed in transfected cells
Put plainly: 5-HT7 receptor binding. The settings on record: human cloned receptors; ligand 3H-lizergic acid diethylamide (LSD) 1.0 nM; non-specific binding clozapine 25 μM. As for the experimental part:
(§1) For the determination of 5-HT7 receptor affinity human cloned receptors were used. The α1 receptor affinities were determined from isolated frontal cortex preparation of male Wistar rats weighing 120-200 g. The protein contents of membrane preparations were determined by the method of Lowry (1951).
(§2) In the course of 5-HT7 and α1 receptor binding studies the ligands were ^3H-lizergic acid diethylamide (LSD) (1.0 nM) and ^3H-prazosine (0.3 nM). Clozapine (25 μM) and prazosine (1 μM) were used for the measurement of non-specific bindings. The α1 receptor binding studies were carried out according to the methods of Reader, and Greengrass (Reader, T. A., Briere, R., Grondin, L.: J. Neural Transm. 68, p. 79 (1987); Greengrass, P., Brenner, R.: Eur. J. Pharmacol. 55, p. 323 (1979)).
(§3) IC50 is the concentration where the difference between the whole binding and non-specific binding is 50%. The compounds with an IC50 value smaller than […] were considered effective in this test.

The next series deals with α1 receptor. Nature of the series: α1 receptor binding. On the set-up: species or system rat. Particulars: isolated frontal cortex preparation of male Wistar rats; ligand 3H-prazosine 0.3 nM; non-specific binding prazosine 1 μM. The method, then: as §1, §2, §3

Structures can show the parent of a compound that is named as a salt.

The term melting point denotes the temperature of the solid-liquid transition. A word on the IC50: it is the midpoint of a concentration-inhibition curve. A low value points to greater potency.

T1 sequence (P34969 whole entry): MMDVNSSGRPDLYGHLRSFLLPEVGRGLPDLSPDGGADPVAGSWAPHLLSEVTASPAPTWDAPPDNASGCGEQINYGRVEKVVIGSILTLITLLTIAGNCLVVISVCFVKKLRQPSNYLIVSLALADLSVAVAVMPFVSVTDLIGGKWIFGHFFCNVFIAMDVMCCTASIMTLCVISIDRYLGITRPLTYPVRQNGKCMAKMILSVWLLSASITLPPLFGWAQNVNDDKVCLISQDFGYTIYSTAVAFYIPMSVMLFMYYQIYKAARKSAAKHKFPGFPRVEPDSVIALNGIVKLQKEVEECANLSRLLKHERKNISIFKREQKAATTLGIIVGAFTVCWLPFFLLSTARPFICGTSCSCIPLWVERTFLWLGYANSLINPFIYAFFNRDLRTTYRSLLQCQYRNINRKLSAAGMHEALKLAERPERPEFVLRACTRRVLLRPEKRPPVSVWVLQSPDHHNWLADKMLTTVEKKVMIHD

The molecule `O=C1Nc2cc(F)ccc2C1CCCCN1CCN(c2ccccn2)CC1` (stereo not shown) [Example 8, 6-Fluoro-3-[4-(4-pyridin-2-yl-piperazine-1-yl)-butyl]-1,3-dihydro-2H-indol-2-one] registered a melting point of 136 to 137 °C. The molecule also yielded an IC50 at 5-HT7 receptor of less than 0.1 µM. The molecule further came in with an IC50 at α1 receptor of less than 0.1 µM.

For the molecule `O=C1Nc2ccccc2C1CCCCN1CCN(c2cc(Cl)cc3c2OCCO3)CC1` (stereo not shown) [Example 6, 3-{4-[4-(7-Chloro-2,3-dihydrobenzo[1,4]dioxin-5-yl)-piperazine-1-yl]-butyl}-1,3-dihydro-2H-indol-2-one Monooxalate], the IC50 on 5-HT7 receptor was less than 0.1 µM.

Molecule `COc1cccc(N2CCN(CCCCC3C(=O)Nc4ccccc43)CC2)c1` (stereo not shown) [Example 9, 3-{4-[4-(3-Methoxyphenyl)-piperazine-1-yl]-butyl}-1,3-dihydro-2H-indol-2-one Monooxalate] returned an IC50 at 5-HT7 receptor of less than 0.1 µM.

Regarding `O=C1Nc2ccc(F)cc2C1CCCCN1CCN(c2ccccn2)CC1` (stereo not shown) [Example 7, 5-Fluoro-3-[4-(4-pyridin-2-yl-piperazine-1-yl)-butyl]-1,3-dihydro-2H-indol-2-one], the melting point lay within 132 to 134 °C.

Molecule `COc1ccc(Cl)cc1N1CCN(CCCCC2C(=O)Nc3ccccc32)CC1` (stereo not shown) (as salt: hydrochloride) [Example 11, 3-{4-[4-(5-Chloro-2-methoxyphenyl)-piperazine-1-yl]-butyl}-1,3-dihydro-2H-indol-2-one Monohydrochloride] displayed a melting point of 91 to 94 °C.

With `COc1ccc(Cl)cc1N1CCN(CCCCC2C(=O)Nc3ccccc32)CC1` (stereo not shown) [Example 11, 3-{4-[4-(5-Chloro-2-methoxyphenyl)-piperazine-1-yl]-butyl}-1,3-dihydro-2H-indol-2-one Monohydrochloride], the IC50 on 5-HT7 receptor is less than 0.1 µM.

Regarding `O=C1Nc2ccccc2C1CCCCN1CCN(c2ccccn2)CC1` (stereo not shown) [Example 5, 3-[4-(4-Pyridin-2-yl-piperazine-1-yl)-butyl]-1,3-dihydro-2H-indol-2-one], the melting point fell in the range of 131 to 132 °C. Further, the IC50 on 5-HT7 receptor is less than 0.1 µM. In addition, the IC50 at α1 receptor is less than 0.1 µM.

Molecule `O=C1Nc2ccc(F)cc2C1CCCCN1CCN(c2cc(Cl)cc3c2OCCO3)CC1` (stereo not shown) [Example 10, 3-{4-[4(7-Chloro-2,3-dihydrobenzo[1,4]dioxin-5-yl)piperazine-1-yl]-butyl}-5-fluoro-1,3-dihydro-2H-indol-2-one] came in with a melting point of 146 to 148 °C. On 5-HT7 receptor, this molecule gave an IC50 of less than 0.1 µM. The molecule also came in with an IC50 on α1 receptor of less than 0.05 µM.

As to `COc1cccc(N2CCN(CCCCC3C(=O)Nc4ccc(F)cc43)CC2)c1` (stereo not shown) [Example 12, 5-Fluoro-3-{4-[4-3-methoxyphenyl)-piperazine-1-yl]-butyl}-1,3-dihydro-2H-indol-2-one Monooxalate], the IC50 on 5-HT7 receptor and on α1 receptor was less than 0.1 µM throughout.

`COc1cccc(N2CCN(CCCCC3C(=O)Nc4ccc(F)cc43)CC2)c1` (stereo not shown) (as salt: oxalate) [Example 12, 5-Fluoro-3-{4-[4-3-methoxyphenyl)-piperazine-1-yl]-butyl}-1,3-dihydro-2H-indol-2-one Monooxalate]: the melting point is 211 to 214 °C.

For `O=C1Nc2ccccc2C1CCCCN1CCN(c2cc(Cl)cc3c2OCCO3)CC1` (stereo not shown) (as salt: oxalate) [Example 6, 3-{4-[4-(7-Chloro-2,3-dihydrobenzo[1,4]dioxin-5-yl)-piperazine-1-yl]-butyl}-1,3-dihydro-2H-indol-2-one Monooxalate], the melting point lay within 236 to 238 °C.

`COc1cccc(N2CCN(CCCCC3C(=O)Nc4ccccc43)CC2)c1` (stereo not shown) (as salt: oxalate) [Example 9, 3-{4-[4-(3-Methoxyphenyl)-piperazine-1-yl]-butyl}-1,3-dihydro-2H-indol-2-one Monooxalate] registered a melting point of 208 to 211 °C.
